Measurements published in patent US4761408A, “Crystalline aminomethyl compound” (priority 1984, dated 1988).
≈ marks a conversion by molar mass, not a printed value.

Columns and labels:
[1] = system: Staphylococcus aureus, Escherichia coli or Streptococcus pyogenes; test: systemic infection of mice; assay type: in vivo; conditions: sc, parenteral, such as subcutaneous, administration
[2] = system: Streptococcus pyrogenes Aronson 1129; test: in vitro MIC; assay type: cell-based; conditions: ARONSON1129
[3] = system: Escheichia coli 205 R + TEM; test: in vitro MIC; assay type: cell-based; conditions: read-out: in vitro MIC
[4] = stability to the enzyme dehydropeptidase from human kidneys; assay type: in vitro ADME; conditions: kidney dehydropeptidase, read-out: t1/2 (stability to dehydropeptidase) (converted)
Excerpt: Compounds A and B have the following stability (expressed in half-life periods t1/2) to the enzyme dehydropeptidase from human kidneys: […]

[5] = stability to storage of the solid product; assay type: physicochemical
[6] = Determination of the thermal stability (50°, HPLC penem content); assay type: physicochemical
Description: In order to determine the thermal stability, samples of crystalline (5R,6S)-2-aminomethyl-6-[(1R)-1-hydroxyethyl)-2-penem-3-carboxylic acid and amorphous racemic (5R,6S,1'R and 5S,6R,1'S)-2-aminomethyl-6-(1'-hydroxyethyl)-2-penem-3-carboxylic acid previously known from German Offenlegungsschrift No. 2 950 898 are used.
20 mg samples are weighed in glass tubes. The glass tubes are sealed firmly with PVC stoppers and heated in a thermostatted oil bath at 50°. At regular intervals individual glass tubes are removed from the oil bath, the samples are dissolved in 100 ml of doubly distilled water and the penem content is determined by means of HPLC analysis [UV detector: Kratos, 305 nm; injection machine: Wisp; 20 μl charge; integrator: Shimazu, C-R3A; pump: Altex, 2.0 ml/minute; column: Knauer, 25 cm×4 mm, C18 /10 um; eluant: acetonitrile/water 2:98, pH5].

[7] = Day 0, 50°, solid in sealed glass tube

SMILES	ED50 [1] [mg/kg]	MIC [2] [µg/mL]	MIC [3] [µg/mL]	half-life [4] [h]	absorption of water from the air ([5]; approximately normal ambient conditions)	stability under light, heat and air ([5]; relatively long-term action of light, heat (50° C.) and air)	Penem content [6, 7]	Penem content ([6]; Day 1.8, 50°, 2592 min) [%]	Penem content ([6]; Day 3, 50°, 4320 min) [%]	Penem content ([6]; Day 4.5, 50°, 6480 min) [%]	Penem content ([6]; Day 7, 50°, 10080 min) [%]	Penem content ([6]; Day 9, 50°, 12960 min) [%]	Penem content ([6]; Day 12, 50°, 17280 min) [%]	Penem content ([6]; Day 14, 50°, 20160 min) [%]
C[C@@H](O)[C@H]1C(=O)N2C(C(=O)O)=C(CN)S[C@H]12 [Compound A, (5R,6S)-2-aminomethyl-6-[(1R)-1-hydroxyethyl]-2-penem-3-carboxylic acid]	0.3 to 30	0.2 (≈ 0.819 µM)	4 (≈ 16.4 µM)	6.75	no tendency to absorb relatively large quantities of water from the air	very stable	approx. 100%	99	98	97	95	94	92	91
C[C@@H](O)[C@H]1C(=O)N2C(C(=O)O)=C(CN)S[C@H]12 (relative stereo) [Compound B, (1'R,5R,6S+1'S,5S,6R)-2-aminomethyl-6-(1'-hydroxyethyl)-2-penem-3-carboxylic acid, reference compound]		0.5 (≈ 2.05 µM)	8 (≈ 32.8 µM)				approx. 100%	84	78	73	67	64	63	62
